Results taken from patent publication US9725460B2, “Oridonin analogs, compositions, and methods related thereto” (THE BOARD OF REGENTS OF THE UNIVERSITY OF TEXAS SYSTEM, priority 2013, dated 2017).
Converted amounts (≈) assume the structure as drawn. Where two headings read alike, the source gives them in different places.

Columns and labels:
[1] = test system: leukemia; conditions: 15 mg/kg; Zhou et al., Blood 2007; cited from earlier work
[2] = test system: acute myeloid leukemic cells; conditions: Zhou et al., Blood 2007; read-out: IC50, induction of mitochondrial apoptosis; cited from earlier work
[3] = test system: AsPC1; assay: Cancer cell proliferation assay, AsPC1; type: cell-based; conditions: Homo sapiens, ASPC1
Description: (§1) In Vitro Determination of Effects of Synthesized Diterpenoids on Cancer Cell Proliferation. […] Then MTT solution was removed, and 150 μL of DMSO was added to each well. Absorbance of all wells was determined by measuring OD at 550 nm after a 10 min incubation on a 96-well GlowMaxate absorbance reader (Promega, Madison, Wis.). Each individual compound was tested in quadruplicate wells for each concentration.

[4] = test system: MCF-7/ADR; assay: MTT growth inhibition, drug-resistant MCF-7/ADR; type: cell-based; conditions: Homo sapiens, NCI/ADR-RES, 24 h, Table 1d; drug-resistant breast cancer cells; mean ± SE of three experiments
[5] = test system: MCF-7; assay: MTT cancer cell proliferation assay, MCF-7; type: cell-based, human; conditions: Homo sapiens
Procedure, shortened: (§2)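 Cells seeded at 1×10^4/well and exposed 48 h to 0.01-100 μM compound (0.01, 0.1, 1, 5, 10, 100 μM) or DMSO. MTT added for a further 4 h, formazan dissolved in DMSO and OD read at 550 nm; quadruplicate wells per concentration. MCF-7 is ER-positive; MDA-MB-231 ER-negative, triple-negative.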

[6] = test system: Panc-1; assay: Cancer cell proliferation assay, Panc-1; type: cell-based; conditions: Homo sapiens, PANC-1
Description: as §1

[7] = test system: MCF-7/ADR; assay: MTT growth inhibition, drug-resistant MCF-7/ADR; type: cell-based, human; conditions: Homo sapiens, NCI/ADR-RES, 48 h, Table 3; adriamycin-resistant; MTT 48 h; mean ± SE of three experiments
Description: (§3) In Vitro Determination of Effects of Synthesized Diterpenoids on Cancer Cell Proliferation. Breast cancer cell lines MCF-7, MDA-MB-231, […] and MCF/ADR were seeded in 96-well plates at a density of 1×10^4 cells/well and treated with DMSO and 0.01, 0.1, 1, 5, 10, and 100 μM of individual compound for 48 h, and then 20 μL of 3-(4,5-dimethylthiazol-2-yl)-2,5-diphenyltetrazolium bromide (MTT) (5 mg/mL in PBS) was added to each well and further incubated for another 4 h. Then MTT solution was removed, and 150 μL of DMSO was added to each well. Absorbance of all wells was determined by measuring OD at 550 nm after a 10 min incubation on a 96-well GlowMaxate absorbance reader (Promega, Madison, Wis.). Each individual compound was tested in quadruplicate wells for each concentration.
(§4) The growth inhibitory effects of the newly generated pyran-fused diterpenoids were evaluated in four breast cancer cell lines MCF-7 (ER-positive), MDAMB-231 (ER-negative and triple-negative), MDA-MB-468 (ER-negative and triple-negative) as well as MCF-7/ADR (adriamycin-resistant) using MTT assays as described in the Experimental Section. The capability of these new molecules to inhibit the growth of cancer cells was summarized in Table 3 and compared with that of adriamycin and 1 spontaneously.

[8] = test system: DU145; assay: Cancer cell proliferation assay, DU145; type: cell-based; conditions: Homo sapiens, DU-145
[9] = test system: MDA-MB-468; assay: MTT cancer cell proliferation assay, MDA-MB-468; type: cell-based, human; conditions: Homo sapiens, MDA-MB-468, 48 h, Table 3; pyran-fused diterpenoids; MTT 48 h; mean ± SE of three experiments
Description: as §3, §4

[10] = Aqueous solubility; type: physicochemical; conditions: water; compound as such; read-out: Aqueous solubility
[11] = test system: MDA-MB-231; assay: MTT cancer cell proliferation assay, MDA-MB-231; type: cell-based, human; conditions: Homo sapiens
Procedure, shortened: as §2

[12] = test system: breast, pancreatic, and prostate cancer cell lines; assay: Anti-proliferation effects against cancer cell lines; type: cell-based, human; conditions: summary of Tables 1 and 2
Description: as §3

[13] = test system: xenograft tumors (breast cancer MDA-MB-231); assay: MDA-MB-231 xenograft tumor growth in mice; type: in vivo; conditions: 5.0 mg/kg ip; triple-negative MDA-MB-231 xenograft; p<0.0001
Text: (§5) FIG. 14. […] Values are mean±SE of three independent experiments.
(§6) In pilot in vivo studies, this compound was further evaluated for its anticancer activity in suppression of tumor growth in the triple-negative breast cancer MDA-MB-231 xenograft model.

[14] = Body weight and tolerability in xenograft mice; conditions: 5.0 mg/kg ip
Text: as §5, §6

[15] = test system: HMEC cells; assay: Toxicity in HMEC cells; type: cell-based
[16] = test system: MDA-MB-231 cells; assay: Colony formation in MDA-MB-231 cells; type: cell-based
[17] = Table 1a, pancreatic cancer, read-out: IC50 (μM) AsPC1
[18] = Table 2b, mean of at least three experiments, read-out: Effect on proliferation AsPC1 (IC50)
[19] = MCF7, Table 1a, breast cancer, read-out: IC50 (μM) MCF-7
[20] = MCF7, Table 1c, dienone analogues, mean ± SE of three experiments, read-out: Antiproliferative effect MCF-7 (IC50)
[21] = MCF7, Table 2a, A-ring modified analogues, read-out: IC50 (μM) MCF-7
[22] = MCF7, Table 2b, mean of at least three experiments, read-out: Effect on proliferation MCF-7 (ER positive) (IC50)
[23] = Table 1a, pancreatic cancer, read-out: IC50 (μM) Panc-1
[24] = Table 2b, mean of at least three experiments, read-out: Effect on proliferation Panc-1 (IC50)
[25] = Table 1a, prostate cancer, read-out: IC50 (μM) DU145
[26] = Table 2b, mean of at least three experiments, read-out: Effect on proliferation DU145 (IC50)
[27] = MDA-MB-231, Table 1a, breast cancer, read-out: IC50 (μM) MDA-MB-231
[28] = MDA-MB-231, Table 1c, dienone analogues, mean ± SE of three experiments, read-out: Antiproliferative effect MDA-MB-231 (IC50)
[29] = MDA-MB-231, Table 2a, A-ring modified analogues, read-out: IC50 (μM) MDA-MB-231
[30] = MDA-MB-231, Table 2b, mean of at least three experiments, read-out: Effect on proliferation MDA-MB-231 (ER negative) (IC50)
[31] = Table 2a, A-ring modified analogues, read-out: IC50 (μM) AsPC1
[32] = Table 2a, A-ring modified analogues, read-out: IC50 (μM) Panc-1

| IC50 [4] [µM] | IC50 [5, 20] [µM] | IC50 [5, 21] [µM] | IC50 [11, 28] [µM] | IC50 [11, 29] [µM] | IC50 [3, 31] [µM] | IC50 [6, 32] [µM] | Compound | IC50 [3, 17] [µM] | IC50 [3, 18] [µM] | IC50 [5, 19] [µM] | IC50 [5, 22] [µM] | IC50 [6, 23] [µM] | IC50 [6, 24] [µM] | IC50 [8, 25] [µM] | IC50 [8, 26] [µM] | IC50 [11, 27] [µM] | IC50 [11, 30] [µM] | IC50 values, anti-proliferation effects against cancer cell lines [12] | Inhibition of xenograft tumor growth compared to oridonin at the same dose [13] | Loss of body weight [14] | also measured |
| --- | --- | --- | --- | --- | --- | --- | --- | --- | --- | --- | --- | --- | --- | --- | --- | --- | --- | --- | --- | --- | --- |
| > 30 | 4.36 ± 1.41 | 6.64 | 28 ± 1.4 | 29.4 | – | – | C=C1C(=O)[C@]23[C@H](O)[C@H]1CC[C@H]2[C@@]12COC3(O)[C@@H](O)[C@@H]1C(C)(C)CC[C@@H]2O [Oridonin] | 34.5 | 19.3 | 6.64 | 6.6 | 13.4 | 15.6 | 14.2 | 14.2 | 29.4 | 29.4 | – | – | – | Anti-leukemia activities in murine models [1]: substantial anti-leukemia activities with a low side-effect; IC50 [2]: 2 µM; IC50 ([5]; MCF7, 48 h, Table 3, pyran-fused diterpenoids, MTT 48 h, mean ± SE of three experiments, read-out: IC50 (μM) MCF-7): 4.36 ± 1.41 µM; IC50 ([5]; MCF7, Table 1b, triazole substituted analogues, mean of three experiments, read-out: IC50 (μM) MCF-7): 6.6 µM; IC50 [7]: 34.8 ± 2.54 µM; IC50 [9]: 5.33 ± 1.36 µM; solubility [10]: 1290 µg/mL (≈ 3.54 mM); IC50 ([11]; MDA-MB-231, 48 h, Table 3, pyran-fused diterpenoids, MTT 48 h, mean ± SE of three experiments, read-out: IC50 (μM) MDA-MB-231): 28 ± 1.4 µM; IC50 ([11]; MDA-MB-231, Table 1b, triazole substituted analogues, mean of three experiments, read-out: IC50 (μM) MDA-MB-231): 29.4 µM |
| 6.55 ± 0.96 | 1.28 ± 0.47 | 1.46 | 3.46 ± 1.33 | 6.09 | 3.57 | 5.35 | C=C1C(=O)[C@@]23[C@@H]4OC(C)(C)OC25OC[C@]2(C(=O)C(C=O)=CC(C)(C)[C@H]2[C@@H]5O)[C@@H]3CC[C@@H]14 [CYD-6-92, (3S,3aR,3a^1R,6aR,7S,7aR,11aS,11bS)-7-hydroxy-5,5,8,8-tetramethyl-15-methylene-11,14-dioxo-2,3,3a,7,7a,8,11,11b-octahydro-1H-6a,11a-(epoxymethano)-3,3a^1-ethanophenanthro[1,10-de][1,3]dioxine-10-carbaldehyde] | – | – | – | – | – | – | – | – | – | – | low micromolar to nanomolar | – | – | – |
| – | – | – | – | – | – | – | C=CCNc1nc2c(s1)CC(C)(C)[C@H]1[C@H](O)[C@@]3(O)OC[C@@]21[C@@H]1CC[C@H]2C(=C)C(=O)[C@]13[C@@H]2O [CYD-6-18, (5aR,6S,7S,7aR,10S,12aS,12bR,15R)-2-(allylamino)-6,7,15-trihydroxy-5,5-dimethyl-9-methylene-5,5a,6,7,10,11,12,12a-octahydro-4H-7,12b-(epoxymethano)-7a,10-methanocyclohepta[7,8]naphtho[1,2-d]thiazol-8(9H)-one] | 1.05 | 1.1 | 0.18 | 0.2 | 1.1 | 1.1 | 1.18 | 1.2 | 0.18 | 0.2 | low micromolar to nanomolar | much better effect in inhibiting tumor growth | no significant loss of body weight | Tolerability during the experiments [14]: tolerated |
| 5.03 ± 1.91 | 0.56 ± 0.31 | 1.1 | 3.49 ± 1.21 | 5.6 | 8.82 | 7.93 | C=C1C(=O)[C@@]23[C@@H]4OC(C)(C)OC25OC[C@]2(C(=O)C=CC(C)(C)[C@H]2[C@@H]5O)[C@@H]3CC[C@@H]14 [CYD-6-25, (3S,3aR,3a^1R,6aR,7S,7aR,11aS,11bS)-7-hydroxy-5,5,8,8-tetramethyl-15-methylene-3,3a,7,7a,8,11b-hexahydro-1H-6a,11a-(epoxymethano)-3,3a^1-ethanophenanthro[1,10-de][1,3]dioxine-11,14(2H)-dione] | – | – | – | – | – | – | – | – | – | – | – | – | – | – |
| 5.82 ± 2.12 | 1.31 ± 0.25 | 0.95 | 2.23 ± 0.68 | 3.56 | 2.99 | > 10 | C=C1C(=O)[C@]23[C@H](O)[C@H]1CC[C@H]2[C@@]12CO[C@]3(O)[C@@H](O)[C@@H]1C(C)(C)C=CC2=O [CYD-6-58, (4aR,5S,6S,6aR,9S,11aS,11bS,14R)-5,6,14-trihydroxy-4,4-dimethyl-8-methylene-4,4a,5,6,9,10,11,11a-octahydro-1H-6,11b-(epoxymethano)-6a,9-methanocyclohepta[a]naphthalene-1,7(8H)-dione] | – | – | – | – | – | – | – | – | – | – | – | – | – | – |

| Compound | IC50 [4] [µM] | IC50 [5, 20] [µM] | IC50 [5, 21] [µM] | IC50 [11, 28] [µM] | IC50 [11, 29] [µM] | IC50 [3, 31] [µM] | IC50 [6, 32] [µM] | IC50 [3, 17] [µM] | IC50 [3, 18] [µM] | IC50 [5, 19] [µM] | IC50 [5, 22] [µM] | IC50 [6, 23] [µM] | IC50 [6, 24] [µM] | IC50 [8, 25] [µM] | IC50 [8, 26] [µM] | IC50 [11, 27] [µM] | IC50 [11, 30] [µM] | IC50 values, anti-proliferation effects against cancer cell lines [12] | Inhibition of xenograft tumor growth compared to oridonin at the same dose [13] | Loss of body weight [14] | also measured |
| --- | --- | --- | --- | --- | --- | --- | --- | --- | --- | --- | --- | --- | --- | --- | --- | --- | --- | --- | --- | --- | --- |
| C=C1C(=O)[C@@]23[C@@H]4OC(C)(C)OC25OC[C@]2(C=CC(=O)C(C)(C)[C@H]2[C@@H]5O)[C@@H]3CC[C@@H]14 [CYD-6-86, (3S,3aR,3a^1R,6aR,7S,7aS,11aR,11bS)-7-hydroxy-5,5,8,8-tetramethyl-15-methylene-3,3a,7,7a,8,11b-hexahydro-1H-6a,11a-(epoxymethano)-3,3a^1-ethanophenanthro[1,10-de][1,3]dioxine-9,14(2H)-dione] | 6.02 ± 1.28 | 0.98 ± 0.19 | 0.86 | 5.6 ± 1.06 | 4.39 | 0.81 | 6.49 | – | – | – | – | – | – | – | – | – | – | low micromolar to nanomolar | much more efficacious in suppressing xenograft tumor growth | no significant loss of body weight | Toxicity in HMEC cells [15]: lower toxicity; Tolerability during the experiments [14]: well tolerated; Antiproliferative and colony formation inhibitory effects in MDA-MB-231 cells [16]: potent antiproliferative and colony formation inhibitory effects |
